According to PubChem BioAssay (NCI):
“And” between values parts separate entries of the source, which are not always exact repeats. Equal entries are not always repeated.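 Grown in 96-well plates, cells were treated for 48 hours with each compound at five concentrations. Insufficient inhibition: endpoint recorded as highest concentration tested. Abbreviation: GI50, concentration required for 50% inhibition of growth. At the TGI there is no net growth.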

Legend:
Test in all cases: inhibition of tumour cell growth, NCI panel, 48 h
UO-31 renal = system: UO-31 renal
ACHN renal = system: ACHN renal
SK-OV-3 ovarian = system: SK-OV-3 ovarian
OVCAR-8 ovarian = system: OVCAR-8 ovarian
SK-MEL-28 melanoma = system: SK-MEL-28 melanoma
SN12C renal = system: SN12C renal
MOLT-4 leukemia = system: MOLT-4 leukemia
LOX IMVI melanoma = system: LOX IMVI melanoma
RXF 393 renal = system: RXF 393 renal
NCI-H23 lung = system: NCI-H23 lung

| SMILES | TGI (UO-31 renal) [µM] | TGI (ACHN renal) [µM] | TGI (SK-OV-3 ovarian) [µM] | TGI (OVCAR-8 ovarian) | TGI (SK-MEL-28 melanoma) | TGI (SN12C renal) | TGI (MOLT-4 leukemia) [µM] | TGI (LOX IMVI melanoma) | TGI (RXF 393 renal) | TGI (NCI-H23 lung) [µM] | GI50 (LOX IMVI melanoma) [µM] | GI50 (UO-31 renal) [µM] | GI50 (SK-OV-3 ovarian) [µM] | GI50 (RXF 393 renal) [µM] | GI50 (SN12C renal) [µM] | GI50 (NCI-H23 lung) [µM] | GI50 (MOLT-4 leukemia) [µM] | GI50 (ACHN renal) [µM] | GI50 (OVCAR-8 ovarian) [µM] | GI50 (SK-MEL-28 melanoma) [µM] |
| --- | --- | --- | --- | --- | --- | --- | --- | --- | --- | --- | --- | --- | --- | --- | --- | --- | --- | --- | --- | --- |
| COc1ccc(C(=CCC(C)C2CCC3[C@@H]4C(OC(C)=O)CC5CC(OC(C)=O)CC[C@]5(C)C4CC(OC(C)=O)[C@]23C)c2ccc(OC)cc2)cc1 (some centres not stated) | > 100 | > 100 | > 100 | > 100 µM | > 100 µM | > 100 µM | > 100 |  |  |  |  |  |  |  |  |  |  |  |  |  |
| CCCC(O)[C@@]1(CC)CC(C)C(O)(C2(C)C[C@H](C)[C@@H](C(CC)C(=O)C(C)[C@@H](O)[C@H](C)C3OC(O)(C(CC)C(=O)O)[C@@H](C)C(O)C3CC)O2)O1 (some centres not stated) | 3.18 | 6.78 | 6.54 | 6.05 µM | 1.69 µM | 2.39 µM |  | 1.57 µM | 1.61 µM | 2.28 |  |  |  |  |  |  |  |  |  |  |
| O=c1[nH]c2ccccc2cc1-c1nnc(Cc2ccccc2)o1 | 3.72 |  | 38.1 |  |  | 28.2 µM | 9.22 | 4.3 µM | 10.9 µM | 39.5 | 1.75 | 1.72 | 18.3 | 2.93 | 3.46 | 11.3 | 2.67 |  |  |  |
| N=C(N)n1cc(/C=N/N=C(N)N)cn1 | > 100 | > 100 | > 100 | > 100 µM | > 100 µM | > 100 µM | > 100 | > 100 µM | > 100 µM | > 100 |  |  |  |  |  |  |  |  |  |  |
| CC(=O)C1(C(=O)C(=[N+]=[N-])S(=O)(=O)c2ccccc2)CC1 | > 100 | > 100 |  | > 100 µM | > 100 µM | > 100 µM | > 100 | > 100 µM | > 100 µM | > 100 |  |  |  |  |  |  |  |  |  |  |
| Nc1nc(-c2ccccc2)c(CC(=O)O)s1 | > 100 | > 100 | > 100 | > 100 µM | > 100 µM | > 100 µM | > 100 | > 100 µM | > 100 µM |  |  |  |  |  |  |  |  |  |  |  |
| Cc1nc2ccncc2[nH]1 | > 100 | > 100 |  | > 100 µM | > 100 µM | > 100 µM | > 100 | > 100 µM | > 100 µM | > 100 |  |  |  |  |  |  |  |  |  |  |
| O=C(O)c1ccccc1NCn1nc(-c2ccccc2O)oc1=S | > 100 | 82.8 |  | > 100 µM | > 100 µM | > 100 µM | 30 | 38.9 µM | > 100 µM | > 100 | 19.4 | > 100 |  | 68.9 | 56.5 | 40.1 | 9.98 | 26.9 | > 100 | > 100 |
| CCOC(=O)C(Cc1ccc(N=NN(C)C)cc1)NC(=O)CC1c2ccccc2-c2ccccc21 (configuration not stated) | > 100 | > 100 | > 100 | > 100 µM | > 100 µM | > 100 µM | > 100 | > 100 µM |  | > 100 |  |  |  |  |  |  |  |  |  |  |
| CCOC(=O)c1cn(C)c2c(OC)c3ccccc3c(OC)c2c1=O | > 100 | > 100 | > 100 | 63.7 µM | > 100 µM | 86.9 µM | 51.7 | 58.6 µM |  | 37.8 | 20.7 | > 100 | 77.1 |  | 28.1 | 16.1 | 18.9 | 46.8 | 20.2 | 56 |
| O=C(O)c1ccccc1C(=O)c1ccco1 | > 100 | > 100 |  | > 100 µM | > 100 µM | > 100 µM | > 100 | > 100 µM | > 100 µM | > 100 |  |  |  |  |  |  |  |  |  |  |
| O=C1c2cccc3c(N4CCOCC4)ccc(c23)C(=O)N1CCN1CCN(CCCCCN2CCN(CCN3C(=O)c4cccc5c(N6CCOCC6)ccc(c45)C3=O)CC2)CC1 |  | > 100 | > 100 | > 100 µM | > 100 µM | > 100 µM |  | > 100 µM | > 100 µM | > 100 | > 100 |  | > 100 | 59.8 | 57.4 | 99.8 |  | 62.2 | 91 | > 100 |
| Cc1ccc(-n2c3nc(=O)n(C)c(=O)c-3nc3ccccc32)c(C)c1 | 52.5 | 15.8 | 75.8 | 32.9 µM |  | 22.8 µM | 36.2 | 33.9 µM | 34.5 µM | 7.75 |  |  |  |  |  |  |  |  |  |  |
| COc1ccc([C@@]23Oc4cc(OC)cc(OC)c4[C@]2(O)[C@H](O)[C@H](C(=O)N(C)C)[C@H]3c2ccccc2)cc1 |  |  |  | 0.244 µM and 0.236 µM and 0.488 µM | 0.0616 µM and 0.0292 µM and 0.0492 µM | 0.329 µM and 0.0664 µM and 0.186 µM |  | 0.0189 µM and 0.0225 µM | 0.0823 µM and 0.0262 µM and 0.0785 µM |  |  | 0.0214 | 0.0157 | 0.0178 | 0.0192 | 0.0152 |  |  | 0.0208 | 0.0134 |
| O=C([O-])c1ccc([I+]c2ccccc2)cc1 | > 100 |  | > 100 | > 100 µM |  | > 100 µM | > 100 | > 100 µM | > 100 µM | > 100 |  |  |  |  |  |  |  |  |  |  |
| Cc1ccc(S(=O)(=O)Nc2ccccc2C(C)(C)C)cc1 | 47.3 | > 100 | 81.3 | > 100 µM | 43.2 µM |  | 62.8 |  | 26.8 µM | 46.3 |  |  |  |  |  |  |  |  |  |  |
| C1CN2CCO[SiH](O1)OCC2 | > 100 | > 100 | > 100 | > 100 µM | > 100 µM | > 100 µM | > 100 |  | > 100 µM | > 100 |  |  |  |  |  |  |  |  |  |  |
| O=C1C=CC2(O)OCC3C=C4O[C@@H]5OC6(CCCCC6)O[C@@H]5C4[C@@H]2[C@@H]13 (some centres not stated) | 37.3 | 88.4 | > 100 | 77.2 µM | 44.7 µM | > 100 µM | 70.5 | > 100 µM |  | 67.3 |  |  |  |  |  |  |  |  |  |  |
| O=[N+]([O-])/C=C/c1ccc2ccccc2c1 | 35.1 | 4.17 | 9.22 | > 21.2 µM | 4.65 µM | 22.7 µM |  | 7.81 µM | 5.72 µM | > 23.5 |  |  |  |  |  |  |  |  |  |  |
| Cc1nc2sccn2c1C(=O)NNC(N)=S |  | > 100 | > 100 | > 100 µM | > 100 µM | > 100 µM | > 100 | > 100 µM | > 100 µM | > 100 |  |  |  |  |  |  |  |  |  |  |
| N#Cc1c(-c2ccccc2)c(-c2ccccc2)cc2c(=O)c3ccc(Cl)cc3[nH]c12 | > 100 | > 100 | > 100 | > 100 µM | > 100 µM | > 100 µM | > 100 |  | > 100 µM | > 100 |  |  |  |  |  |  |  |  |  |  |
| CCOC(=O)C1=C(C)N(NC(N)=O)C2(N)N(NC(N)=O)C(C)=C(C(=O)OCC)C12C#N (configuration not stated) | > 100 | > 100 | > 100 | > 100 µM | > 100 µM | > 100 µM | > 100 | > 100 µM |  |  |  |  |  |  |  |  |  |  |  |  |
| C[n+]1cn(CC(=O)c2ccccc2)c(C(N)=O)c1N | > 100 | > 100 | > 100 | > 100 µM | > 100 µM | > 100 µM | > 100 | > 100 µM |  | > 100 |  |  |  |  |  |  |  |  |  |  |
| N#CC(C(=O)Nc1ccccc1)C1=C(Cl)C(=O)c2ccccc2C1=O (configuration not stated) | 26.9 |  | > 100 | 46.1 µM | 32.1 µM | 29.1 µM |  | 29.8 µM | 31.4 µM | 36.5 |  |  |  |  |  |  |  |  |  |  |
| [O-][n+]1c2cccc(O)c2[n+]([O-])c2cccc(O)c21 | > 100 | 51.8 | > 100 | > 100 µM |  |  | > 100 | > 100 µM | > 100 µM | > 100 |  |  |  |  |  |  |  |  |  |  |
| N#CN1CC[C@H](C(=O)Nc2ncc(-c3ccccc3)s2)C1 | 5.36 | 2.49 | 13.8 | 6.46 µM | 3.01 µM | 7.24 µM | 2.04 | 1.65 µM |  | 6.46 | 0.267 | 0.549 | 2.2 |  | 0.471 | 0.705 | 0.309 | 0.562 | 0.45 | 1.09 |
| O=C(Nc1ccccc1C(=O)NC(=O)c1ccccc1NC(=O)c1ccccc1)c1ccccc1 |  | 36.3 |  | 23 µM | 10.6 µM | 17.2 µM |  | 13.9 µM | 9.15 µM | 17.1 |  |  |  |  |  |  |  |  |  |  |
| O=c1[nH]c(=S)[nH]c(O)c1/C=C1\C=Nc2ccccc21 |  | 24.3 | 81.5 | > 100 µM | 48.3 µM | 59.4 µM | 8.02 | 11.1 µM | 14.6 µM | 44.2 | 2.46 |  | 15.7 | 3.71 | 7.95 | 12.4 | 2.51 | 11.4 | 3.47 | 6.69 |
| COCOC1CCCC[C@@]1(OCCOCCO[C@@]1(c2ccccc2)CCCC[C@H]1OCOC)c1ccccc1 (some centres not stated) | > 100 | > 100 | > 100 | > 100 µM | > 100 µM | > 100 µM |  | > 100 µM | > 100 µM | > 100 |  |  |  |  |  |  |  |  |  |  |
| CCCCCCCCCCCCCCCC(=O)OCC1OC(n2cc(F)c(=O)[nH]c2=O)C(NC(=O)OCc2ccccc2)C(O)C1O (configuration not stated) | 35.2 | > 100 | 66 | 37.2 µM |  | 38 µM | 38.3 | 32.5 µM |  | 43.6 |  |  |  |  |  |  |  |  |  |  |
